The target in one assay is T1, Lp-PLA2 in human serum (Homo sapiens, UniProt Q13093).
T1 construct: from tissue
T1 sequence (Q13093 22-441): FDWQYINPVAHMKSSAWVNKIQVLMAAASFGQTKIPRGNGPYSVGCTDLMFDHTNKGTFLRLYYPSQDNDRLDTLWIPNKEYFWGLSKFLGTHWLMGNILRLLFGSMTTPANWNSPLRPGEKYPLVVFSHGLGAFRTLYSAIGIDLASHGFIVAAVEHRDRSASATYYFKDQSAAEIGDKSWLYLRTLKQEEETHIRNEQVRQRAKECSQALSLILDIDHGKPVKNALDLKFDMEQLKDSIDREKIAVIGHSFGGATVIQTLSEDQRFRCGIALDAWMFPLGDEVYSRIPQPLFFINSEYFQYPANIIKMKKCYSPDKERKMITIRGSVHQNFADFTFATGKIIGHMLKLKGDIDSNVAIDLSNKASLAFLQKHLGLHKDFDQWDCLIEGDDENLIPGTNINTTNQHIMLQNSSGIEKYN
The assay can be described thus: In vitro inhibitory activity towards the enzyme Lp-PLA2 in human serum, [3H]PAF substrate. As to conditions: for inhibition at 0.01 µM: 10 nM; for inhibition at 0.1 µM: 100 nM. The assay is classed as biochemical. In short, it runs like this: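 Human plasma was preincubated with compound 10 min at 37 °C in 50 mM HEPES, 150 mM NaCl, pH 7.4. Reaction started with 20 nM [3H]PAF, run 10 min at 37 °C, then extracted with CHCl3/MeOH (2:1); radioactivity of the supernatant was counted.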

A further assay has as its target T2, Lp-PLA2 in rabbit serum (Oryctolagus cuniculus, UniProt G1SE06).
T2 construct: from tissue; host or cells: rabbit serum
T2 sequence (G1SE06 22-423): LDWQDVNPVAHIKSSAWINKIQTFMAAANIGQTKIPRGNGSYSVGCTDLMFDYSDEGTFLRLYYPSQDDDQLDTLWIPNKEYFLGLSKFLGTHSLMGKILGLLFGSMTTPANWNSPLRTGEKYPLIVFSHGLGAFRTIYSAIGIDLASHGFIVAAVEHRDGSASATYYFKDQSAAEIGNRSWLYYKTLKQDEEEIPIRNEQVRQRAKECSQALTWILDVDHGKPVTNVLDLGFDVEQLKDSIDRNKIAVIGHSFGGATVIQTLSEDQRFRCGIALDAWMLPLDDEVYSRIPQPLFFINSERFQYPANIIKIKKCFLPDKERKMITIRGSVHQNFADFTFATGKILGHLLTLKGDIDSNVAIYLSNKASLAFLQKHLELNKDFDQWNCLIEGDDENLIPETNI
The assay can be described thus: In vitro inhibitory activity towards the enzyme Lp-PLA2 in rabbit serum, [3H]PAF substrate. The assay is classed as biochemical. The settings on record: 100 nM.

Where [1] appears, read: human serum, read-out: inhibition, %.
The mark [2] stands for this setting: rabbit serum, read-out: inhibition, %.
Setting [3] is: read-out: inhibitory rate towards the human serum derived Lp-PLA2 enzyme.
Where [4] appears, read: read-out: inhibitory rate towards the rabbit serum derived Lp-PLA2 enzyme.

Read-outs that look alike come from different tables or passages of the source.

On to `O=c1nc(SCc2ccc(F)cc2)n(Cc2nnc(CSCc3ccc(F)cc3)n2Cc2ccc(-c3ccc(C(F)(F)F)cc3)cc2)c2c1CCC2` [Example 115, 2-(4-fluorobenzylthio)-1-((5-((4-fluorobenzylthio)methyl)-4-((4′-(trifluoromethyl)biphenyl-4-yl)methyl)-4H-1,2,4-triazol-3-yl)methyl)-6,7-dihydro-1H-cyclopenta[d]pyrimidin-4(5H)-one], for which the inhibition at 0.01 µM on Lp-PLA2 in human serum (setting [1]) was 77%. The inhibition at 0.1 µM on Lp-PLA2 in rabbit serum (setting [2]) was found to be 78%.
In the case of `CN(C)/N=C/c1nnc(Cn2c(SCc3ccc(F)cc3)nc(=O)c3c2CCC3)n1Cc1ccc(-c2ccc(C(F)(F)F)cc2)cc1` [Example 116, (E)-1-((5-((2,2-dimethylhydrazono)methyl)-4-((4′-(trifluoromethyl)biphenyl-4-yl)methyl)-4H-1,2,4-triazol-3-yl)methyl)-2-(4-fluorobenzylthio)-6,7-dihydro-1H-cyclopenta[d]pyrimidin-4(5H)-one], the values for the inhibition at 0.01 µM at Lp-PLA2 in human serum (setting [1]) and at Lp-PLA2 in human serum (setting [3]) were 88% and over 80%, respectively. The values for the inhibition at 0.1 µM against Lp-PLA2 in human serum (human serum), on Lp-PLA2 in rabbit serum (setting [2]) and at Lp-PLA2 in rabbit serum (setting [4]) were 100%, 94% and over 90%, respectively.
For the compound `O=c1nc(SCc2ccc(F)cc2)n(Cc2nnc(/C=N/N3CCCCC3)n2Cc2ccc(-c3ccc(C(F)(F)F)cc3)cc2)c2c1CCC2` [Example 117, (E)-2-(4-fluorobenzylthio)-1-((5-((piperidin-1-ylimino)methyl)-4-((4′-(trifluoromethyl)biphenyl-4-yl)methyl)-4H-1,2,4-triazol-3-yl)methyl)-6,7-dihydro-1H-cyclopenta[d]pyrimidin-4(5H)-one], at Lp-PLA2 in human serum (setting [1]), the inhibition at 0.01 µM came to 67%. The inhibition at 0.1 µM against Lp-PLA2 in human serum (human serum) was found to be 92%; on Lp-PLA2 in rabbit serum (setting [2]), 80%.
On the same counts, the results for `CC(C)(C)N/N=C/c1nnc(Cn2c(SCc3ccc(F)cc3)nc(=O)c3c2CCC3)n1Cc1ccc(-c2ccc(C(F)(F)F)cc2)cc1` [Example 118] are 58%, 88% and 68%.
For the compound `C=C(OC(C)=O)c1nnc(Cn2c(SCc3ccc(F)cc3)nc(=O)c3c2CCC3)n1Cc1ccc(-c2ccc(C(F)(F)F)cc2)cc1` [Example 119, 1-(5-((2-(4-fluorobenzylthio)-4-oxo-4,5,6,7-tetrahydro-1H-cyclopenta[d]pyrimidin-1-yl)methyl)-4-((4′-(trifluoromethyl)biphenyl-4-yl)methyl)-4H-1,2,4-triazol-3-yl)vinyl acetate], the inhibition at 0.01 µM at Lp-PLA2 in human serum (setting [1]) is 94%; at Lp-PLA2 in human serum (setting [3]), over 80%. Also, the inhibition at 0.1 µM at Lp-PLA2 in human serum (human serum) is 98%; on Lp-PLA2 in rabbit serum (setting [2]), 93%; on Lp-PLA2 in rabbit serum (setting [4]) it was over 90%.
In the case of `CC(O)c1nnc(Cn2c(SCc3ccc(F)cc3)nc(=O)c3c2CCC3)n1Cc1ccc(-c2ccc(C(F)(F)F)cc2)cc1` (stereo not shown) [Example 120, 2-(4-fluorobenzylthio)-1-((5-(1-hydroxyethyl)-4-((4′-(trifluoromethyl)biphenyl-4-yl)methyl)-4H-1,2,4-triazol-3-yl)methyl)-6,7-dihydro-1H-cyclopenta[d]pyrimidin-4(5H)-one], the inhibition at 0.01 µM was 89% on Lp-PLA2 in human serum (setting [1]) and over 80% at Lp-PLA2 in human serum (setting [3]). Besides, the inhibition at 0.1 µM is 98% against Lp-PLA2 in human serum (human serum), 90% at Lp-PLA2 in rabbit serum (setting [2]) and over 90% at Lp-PLA2 in rabbit serum (setting [4]).
As to `C[N+](C)(CCO)Cc1nnc(Cn2c(SCc3ccc(F)cc3)nc(=O)c3c2CCC3)n1Cc1ccc(-c2ccc(C(F)(F)F)cc2)cc1` [Example 122, N-((5-((2-(4-fluorobenzylthio)-4-oxo-4,5,6,7-tetrahydro-1H-cyclopenta[d]pyrimidin-1-yl)methyl)-4-((4′-(trifluoromethyl)biphenyl-4-yl)methyl)-4H-1,2,4-triazol-3-yl)methyl)-2-hydroxy-N,N-dimethylethanaminium chloride], the inhibition at 0.01 µM on Lp-PLA2 in human serum (setting [1]) is 92%; at Lp-PLA2 in human serum (setting [3]), over 80%. Further, the inhibition at 0.1 µM is 95% on Lp-PLA2 in rabbit serum (setting [2]) and over 90% at Lp-PLA2 in rabbit serum (setting [4]).
For `O=c1nc(SCc2ccc(F)cc2)n(Cc2nnc(COCCO)n2Cc2ccc(-c3ccc(C(F)(F)F)cc3)cc2)c2c1CCC2` [Example 123, 2-(4-fluorobenzylthio)-1-((5-((2-hydroxyethoxy)methyl)-4-((4′-(trifluoromethyl)biphenyl-4-yl)methyl)-4H-1,2,4-triazol-3-yl)methyl)-6,7-dihydro-1H-cyclopenta[d]pyrimidin-4(5H)-one], the inhibition at 0.01 µM at Lp-PLA2 in human serum (setting [1]) came to 76%. Also, the inhibition at 0.1 µM at Lp-PLA2 in rabbit serum (setting [2]) stood at 88%.
Taken in the same sequence, the figures for `CCN(CC)CCOCc1nnc(Cn2c(SCc3ccc(F)cc3)nc(=O)c3c2CCC3)n1Cc1ccc(-c2ccc(C(F)(F)F)cc2)cc1` [Example 125, 1-((5-((2-(diethylamino)ethoxy)methyl)-4-((4′-(trifluoromethyl)biphenyl-4-yl)methyl)-4H-1,2,4-triazol-3-yl)methyl)-2-(4-fluorobenzylthio)-6,7-dihydro-1H-cyclopenta[d]pyrimidin-4(5H)-one] were 76% and 92%.
Consider `CC(NCCN(C)C)c1nnc(Cn2c(SCc3ccc(F)cc3)nc(=O)c3c2CCC3)n1Cc1ccc(-c2ccc(C(F)(F)F)cc2)cc1` (stereo not shown) [Example 128, 1-((5-(1-(2-(dimethylamino)ethylamino)ethyl)-4-((4′-(trifluoromethyl)biphenyl-4-yl)methyl)-4H-1,2,4-triazol-3-yl)methyl)-2-(4-fluorobenzylthio)-6,7-dihydro-1H-cyclopenta[d]pyrimidin-4(5H)-one], for which the inhibition at 0.01 µM is 90% at Lp-PLA2 in human serum (setting [1]) and over 80% at Lp-PLA2 in human serum (setting [3]). Moreover, the inhibition at 0.1 µM at Lp-PLA2 in rabbit serum (setting [2]) is 94%; at Lp-PLA2 in rabbit serum (setting [4]), over 90%.
`CCN(CC)CCNC(C)c1nnc(Cn2c(SCc3ccc(F)cc3)nc(=O)c3c2CCC3)n1Cc1ccc(-c2ccc(C(F)(F)F)cc2)cc1` (stereo not shown) [Example 130, 1-((5-(1-(2-(diethylamino)ethylamino)ethyl)-4-((4′-(trifluoromethyl)biphenyl-4-yl)methyl)-4H-1,2,4-triazol-3-yl)methyl)-2-(4-fluorobenzylthio)-6,7-dihydro-1H-cyclopenta[d]pyrimidin-4(5H)-one]: the inhibition at 0.01 µM on Lp-PLA2 in human serum (setting [1]) was determined as 92%. Further, the inhibition at 0.1 µM on Lp-PLA2 in rabbit serum (setting [2]) worked out at 94%.
On the same counts, the results for `CCN(CC)CCN(CC(=O)O)Cc1nnc(Cn2c(SCc3ccc(F)cc3)nc(=O)c3c2CCC3)n1Cc1ccc(-c2ccc(C(F)(F)F)cc2)cc1` [Example 135, 2-((2-(diethylamino)ethyl)((3-((2-(4-fluorobenzylthio)-4-oxo-4,5,6,7-tetrahydro-1H-cyclopenta[d]pyrimidin-1-yl)methyl)-4-((4′-(trifluoromethyl)biphenyl-4-yl)methyl)-4H-1,2,4-triazol-5-yl)methyl)amino)acetic acid] are 66% and 83%.
Take `CCN(CC)Cc1onc(Cn2c(SCc3ccc(F)cc3)nc(=O)c3c2CCC3)c1Cc1ccc(-c2ccc(C(F)(F)F)cc2)cc1` [Example 157, 1-((5-((diethylamino)methyl)-4-((4′-(trifluoromethyl)biphenyl-4-yl)methyl)isoxazol-3-yl)methyl)-2-(4-fluorobenzylthio)-6,7-dihydro-1H-cyclopenta[d]pyrimidin-4(5H)-one]: the inhibition at 0.01 µM at Lp-PLA2 in human serum (setting [1]) came to 96%. Besides, on Lp-PLA2 in rabbit serum (setting [2]), the inhibition at 0.1 µM amounted to 89%.
In the case of `CN(C)CCN(C)Cc1onc(Cn2c(SCc3ccc(F)cc3)nc(=O)c3c2CCC3)c1Cc1ccc(-c2ccc(C(F)(F)F)cc2)cc1` [Example 158, 1-((5-(((2-(dimethylamino)ethyl)(methyl)amino)methyl)-4-((4′-(trifluoromethyl)biphenyl-4-yl)methyl)isoxazol-3-yl)methyl)-2-(4-fluorobenzylthio)-6,7-dihydro-1H-cyclopenta[d]pyrimidin-4(5H)-one], the results for the inhibition at 0.01 µM at Lp-PLA2 in human serum (setting [1]) and at Lp-PLA2 in human serum (setting [3]) were 98% and over 80%, respectively. Further, the inhibition at 0.1 µM on Lp-PLA2 in rabbit serum (setting [2]) was 98%; at Lp-PLA2 in rabbit serum (setting [4]), over 90%.
On to `CCN(CC)CCN(C)Cc1onc(Cn2c(SCc3ccc(F)cc3)nc(=O)c3c2CCC3)c1Cc1ccc(-c2ccc(C(F)(F)F)cc2)cc1` [Example 159, 1-((5-(((2-(diethylamino)ethyl)(methyl)amino)methyl)-4-((4′-(trifluoromethyl)biphenyl-4-yl)methyl)isoxazol-3-yl)methyl)-2-(4-fluorobenzylthio)-6,7-dihydro-1H-cyclopenta[d]pyrimidin-4(5H)-one], for which the inhibition at 0.01 µM on Lp-PLA2 in human serum (setting [1]) was 100%; at Lp-PLA2 in human serum (setting [3]) it was over 80%. Moreover, the inhibition at 0.1 µM is 97% on Lp-PLA2 in rabbit serum (setting [2]) and over 90% at Lp-PLA2 in rabbit serum (setting [4]).

(Values after patent US20140171431A1, “AZOLE HETEROCYCLIC COMPOUND, PREPARATION METHOD, PHARMACEUTICAL COMPOSITION AND USE” (priority 2011, published 2014).)
